Laboratory results as given in patent US9416128B2, “Fused heterocyclic compounds as ion channel modulators” (Gilead Sciences, Inc., priority 2013, dated 2016).
Where two headings read alike, the source gives them in different places.

Key:
hNaV1.1 (SCN1A) = hNaV1.1 (SCN1A) (Homo sapiens, UniProt P35498); test: Use-dependent inhibition of the CNS NaV1.1 sodium channel; format: cell-based; conditions: % inhibition, 25 Hz; for inhibition at 1 µM: use-dependent block at 1 uM, read-out: Nav1.1 UDB 25 Hz 1 uM; for inhibition at 10 µM: use-dependent block at 10 uM, read-out: Nav1.1 UDB 25 Hz 10 uM
Description: HEK-293 cells stably expressing wild-type (WT) hNaV1.1 (SCN1A, NCBI# AB09354) were obtained from Millipore (Cat. # CYL3009) were used to record INa. Cells are maintained with standard tissue culture procedures and stable channel expression is maintained with 400 ug/mL G418 in the culture medium. Unless otherwise noted, all reagents are purchased from Sigma-Aldrich (St Louis, Mo., U.S.A.).
Assays measuring Use-Dependent Block (UDB) of NaV1.2 are performed on an automated electrophysiology platform, QPatch 16X or QPatch HT (Sophion Bioscience, Copenhagen, Denmark), using the whole cell patch clamp technique to measure currents through the cell membrane. Series resistance compensation is set to 100% and series resistance and whole-cell compensation are performed automatically. Currents stored in the Sophion Bioscience Oracle database (Sophion Bioscience, Copenhagen, Denmark). Analysis is performed using QPatch Assay software and data are compiled in Excel 2010 (Microsoft, Seattle, Wash., U.S.A.).
The internal (pipette) solution consists of (in mM) 105 CsF, 10 NaF, 20 CsCl, 2 EGTA, 10 HEPES, 10 Dextrose with a pH of 7.35 and osmolarity of 300 mOsmol/kg. The external (bath) solution contains in (mM): 145 NaCl, 4 KCl, 1.8 CaCl2, 1 MgCl2, 10 dextrose, 10 HEPES, with a pH of 7.35 and osmolarity of 310 mOsmol/kg. Experiments are carried out at 23-25° C.
Compound stocks are routinely made by the Gilead Sample Bank in vials to 10 mM in dimethyl sulfoxide (DMSO). In some cases, when compounds are not soluble in DMSO, they are made in 100% ethanol. Stocks are sonicated as necessary. […]
Cells are allowed to stabilize for 10 min after establishment of the whole-cell configuration before current is measured. The test compound is applied 2 times at 60 second intervals. After the second compound addition, a 200 second wait period was imposed to allow for equilibration.
Leak currents are subtracted by using an online P/4 procedure and all currents are low-pass Bessel filtered at 5 kHz and digitized at […].
Use-dependent block of NaV1.2 peak current is measured during pulse number 20 of a voltage pulse train (0 mV, 20 ms, 20 pulses, 25 Hz) from a holding potential of −120 mV. Currents are normalized to the peak current recorded in response to the first pulse in each frequency train. The voltage protocol for UDB was performed in the absence and presence of compound and percentage inhibition was calculated with respect to the compound free condition. Results are presented as mean percentage inhibition and data analysis is performed using QPatch Assay Software 4.0, and Excel 2002 (Microsoft, Seattle, Wash., U.S.A.).

[1] = target: wild-type human cardiac sodium channel, hNaV 1.5 (Peak INa) (Homo sapiens, UniProt Q14524); test: Peak INa screening assay (tonic block and use-dependent block); format: cell-based
Description: The assay uses an HEK293 (human embryonic kidney) cell line heterologously expressing the wild-type human cardiac sodium channel, hNaV 1.5, purchased from Millipore (Billerica, Mass.). No beta subunits were coexpressed with the Na channel alpha subunit. Cells are maintained with standard tissue culture procedures and stable channel expression is maintained with 400 μg/mL Geneticin in the culture medium. […] Currents are digitized at 25 kHz and low-pass filtered at 5 kHz and stored in the Sophion Bioscience Oracle database (Sophion Bioscience, Copenhagen, Denmark). Analysis is performed using QPatch Assay software and data are compiled in Excel 2010 (Microsoft, Seattle, Wash., U.S.A.). Compound stocks are routinely made by the Gilead Sample Bank in vials to 10 mM in dimethyl sulfoxide (DMSO). In some cases, when compounds are not soluble in DMSO, they are made in 100% ethanol. Stocks are sonicated as necessary. The extracellular solution for screening Late INa is composed of: 140 mM NaCl, 4 mM KCl, 1.8 mM CaCl2, 1 mM MgCl2, 10 mM HEPES and 10 mM Dextrose with pH adjusted to 7.35 using NaOH. The intracellular solution contains: 105 mM CsF, 20 mM CsCl, 10 NaF, 2 mM EGTA, 10 mM HEPES and 10 mM Dextrose with pH adjusted to 7.35 with CsOH. Compounds are diluted in extracellular solution using a MicroLab Nimbus (Hamilton Robotics, Reno, Nev.) to between 0.3 and 3 μM in glass vials and transferred to glass well plates before robotic addition to the cells. […] It is contemplated that the compounds of Formula I avoid significant block of peak INa. […] The intracellular solution used for the Peak INa assay is the same as outlined for the Late INa assay (see above). After establishing the whole cell recording configuration, channels were stimulated to open with low frequency (0.1 Hz) for so that the recording can be monitored and the extent to which the recording has stabilized can be assessed. The test compound is then applied at 1 or 3 μM was added 2 times at 60 second intervals. After the second compound addition, a 200 second wait period was imposed to allow for equilibration. Voltage protocols for TB and UDB are were performed in the absence and presence of compound and TB and UDB are calculated with respect to the compound free condition. Both TB and UDB were analyzed by incorporating rundown correction for the peak INa.

[2] = % inhibition, use-dependent block of peak INa at 3 uM, 3 Hz, pulse 50, read-out: Nav1.5 Peak UDB 3 Hz 3 uM
[3] = read-out: Nav1.5 Peak TB 3 uM, % inhibition, tonic block of peak INa at 3 uM, 0.1 Hz, holding -100 mV

Chain of wild-type human cardiac sodium channel, hNaV 1.5 (Peak INa) (Q14524 whole entry): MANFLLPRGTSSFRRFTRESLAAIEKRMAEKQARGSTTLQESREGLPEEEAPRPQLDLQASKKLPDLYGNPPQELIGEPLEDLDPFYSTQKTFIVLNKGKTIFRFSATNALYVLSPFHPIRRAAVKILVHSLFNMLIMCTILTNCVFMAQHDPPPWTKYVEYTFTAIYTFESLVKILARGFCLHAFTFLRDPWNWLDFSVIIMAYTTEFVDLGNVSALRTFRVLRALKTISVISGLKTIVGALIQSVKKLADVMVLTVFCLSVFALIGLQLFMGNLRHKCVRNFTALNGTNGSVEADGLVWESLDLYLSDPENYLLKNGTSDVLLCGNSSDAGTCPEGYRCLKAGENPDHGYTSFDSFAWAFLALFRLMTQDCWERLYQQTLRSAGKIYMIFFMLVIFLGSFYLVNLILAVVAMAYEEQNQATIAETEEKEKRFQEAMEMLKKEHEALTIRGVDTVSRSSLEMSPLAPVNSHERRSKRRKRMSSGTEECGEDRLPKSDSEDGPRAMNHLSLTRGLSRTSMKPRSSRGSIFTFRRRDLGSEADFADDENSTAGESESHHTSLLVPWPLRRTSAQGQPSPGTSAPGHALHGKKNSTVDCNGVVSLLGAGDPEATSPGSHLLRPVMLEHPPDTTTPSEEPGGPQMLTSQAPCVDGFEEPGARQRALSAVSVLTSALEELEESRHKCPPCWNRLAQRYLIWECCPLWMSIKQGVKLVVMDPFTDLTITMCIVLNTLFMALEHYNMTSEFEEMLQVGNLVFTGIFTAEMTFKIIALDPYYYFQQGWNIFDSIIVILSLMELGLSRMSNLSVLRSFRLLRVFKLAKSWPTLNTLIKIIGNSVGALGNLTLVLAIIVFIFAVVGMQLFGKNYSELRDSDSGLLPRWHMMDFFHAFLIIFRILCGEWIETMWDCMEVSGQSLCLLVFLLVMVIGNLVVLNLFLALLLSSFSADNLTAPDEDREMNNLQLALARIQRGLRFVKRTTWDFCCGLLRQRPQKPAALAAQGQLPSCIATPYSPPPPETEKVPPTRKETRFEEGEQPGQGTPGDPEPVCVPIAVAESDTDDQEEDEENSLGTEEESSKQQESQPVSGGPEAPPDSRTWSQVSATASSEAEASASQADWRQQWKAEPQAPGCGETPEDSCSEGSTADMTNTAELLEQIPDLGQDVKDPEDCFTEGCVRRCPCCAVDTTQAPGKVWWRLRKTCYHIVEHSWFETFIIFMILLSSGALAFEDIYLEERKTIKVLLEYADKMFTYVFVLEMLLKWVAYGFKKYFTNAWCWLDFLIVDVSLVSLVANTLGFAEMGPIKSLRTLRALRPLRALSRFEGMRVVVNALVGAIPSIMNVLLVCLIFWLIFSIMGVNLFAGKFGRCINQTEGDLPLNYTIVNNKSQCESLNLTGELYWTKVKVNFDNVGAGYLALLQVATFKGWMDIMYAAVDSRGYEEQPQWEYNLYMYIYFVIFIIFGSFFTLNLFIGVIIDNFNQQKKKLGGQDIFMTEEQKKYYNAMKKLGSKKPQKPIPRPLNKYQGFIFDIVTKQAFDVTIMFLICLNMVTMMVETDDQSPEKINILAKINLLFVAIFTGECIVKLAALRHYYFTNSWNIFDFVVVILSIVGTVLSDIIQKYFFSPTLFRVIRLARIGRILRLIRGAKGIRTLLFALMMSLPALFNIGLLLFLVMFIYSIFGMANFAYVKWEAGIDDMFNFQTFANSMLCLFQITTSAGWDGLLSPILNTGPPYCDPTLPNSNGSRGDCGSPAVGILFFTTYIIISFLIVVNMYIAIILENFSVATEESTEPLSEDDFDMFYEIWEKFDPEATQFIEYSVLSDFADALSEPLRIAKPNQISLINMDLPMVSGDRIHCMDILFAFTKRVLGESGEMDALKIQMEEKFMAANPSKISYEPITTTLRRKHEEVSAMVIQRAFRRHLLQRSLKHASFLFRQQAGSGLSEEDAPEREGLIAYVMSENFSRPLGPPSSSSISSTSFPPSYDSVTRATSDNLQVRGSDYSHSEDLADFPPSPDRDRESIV

| SMILES | inhibition at 1 µM (hNaV1.1 (SCN1A)) [%] | inhibition at 10 µM (hNaV1.1 (SCN1A)) [%] | inhibition at 3 µM [1, 2] [%] | inhibition at 3 µM [1, 3] [%] |
| --- | --- | --- | --- | --- |
| O=C1Oc2ccc(-c3ccc(OC(F)(F)F)cc3)cc2CN1Cc1ccccn1 [Example 20, 3-(pyridin-2-ylmethyl)-6-(4-(trifluoromethoxy)phenyl)-3,4-dihydro-2H-benzo[e][1,3]oxazin-2-one] | 29.1 | 82 | 5.1 | 32.8 |
| O=C1Oc2ccc(-c3ccc(OC(F)(F)F)cc3F)cc2CN1Cc1ccccn1 [Example 21, 6-(2-fluoro-4-(trifluoromethoxy)phenyl)-3-(pyridin-2-ylmethyl)-3,4-dihydro-2H-benzo[e][1,3]oxazin-2-one] | < 5 | 50.8 | < 5 | 23 |
| COc1cc(OC(F)(F)F)ccc1-c1ccc2c(c1)CN(Cc1ccccn1)C(=O)O2 [Example 22, 6-(2-methoxy-4-(trifluoromethoxy)phenyl)-3-(pyridin-2-ylmethyl)-3,4-dihydro-2H-benzo[e][1,3]oxazin-2-one] | < 5 | 56.3 | < 5 | 24.9 |
| Cc1cc(OC(F)(F)F)ccc1-c1ccc2c(c1)CN(Cc1ccccn1)C(=O)O2 [Example 23, 6-(2-methyl-4-(trifluoromethoxy)phenyl)-3-(pyridin-2-ylmethyl)-3,4-dihydro-2H-benzo[e][1,3]oxazin-2-one] | 5.2 | 75.2 | < 5 | 19.4 |
| O=C1Oc2ccc(-c3ccc(C(F)(F)F)cc3)cc2CN1Cc1ccccn1 [Example 24, 3-(pyridin-2-ylmethyl)-6-(4-(trifluoromethyl)phenyl)-3,4-dihydro-2H-benzo[e][1,3]oxazin-2-one] | 44.9 | 79.6 | 5.9 | 28.5 |
| CC(C)Oc1cc(C(F)(F)F)ccc1-c1ccc2c(c1)CN(Cc1ncccn1)C(=O)O2 [Example 25, 6-(2-isopropoxy-4-(trifluoromethyl)phenyl)-3-(pyrimidin-2-ylmethyl)-3,4-dihydro-2H-benzo[e][1,3]oxazin-2-one] | 31.7 | 75.3 | < 5 | 29.7 |
| O=C1Oc2ccc(-c3ccc4c(c3)OC(F)(F)O4)cc2CN1Cc1ncccn1 [Example 26, 6-(2,2-difluorobenzo[d][1,3]dioxol-5-yl)-3-(pyrimidin-2-ylmethyl)-3,4-dihydro-2H-benzo[e][1,3]oxazin-2-one] | 14.8 | 66.1 | < 5 | 20.7 |
| CCCOc1cc(C(F)(F)F)ccc1-c1ccc2c(c1)CN(Cc1ncccn1)C(=O)O2 [Example 27, 6-(2-propoxy-4-(trifluoromethyl)phenyl)-3-(pyrimidin-2-ylmethyl)-3,4-dihydro-2H-benzo[e][1,3]oxazin-2-one] | 28.4 | 77.5 | 8.1 | 32 |
| CCCOc1cc(OC(F)(F)F)ccc1-c1ccc2c(c1)CN(Cc1ncccn1)C(=O)O2 [Example 28, 6-(2-propoxy-4-(trifluoromethoxy)phenyl)-3-(pyrimidin-2-ylmethyl)-3,4-dihydro-2H-benzo[e][1,3]oxazin-2-one] | 25.2 | 67.4 | 6.9 | 12.9 |
| Cc1ccnc(CN2Cc3cc(-c4ccc(OC(F)(F)F)cc4)ccc3OC2=O)n1 [Example 29, 3-((4-methylpyrimidin-2-yl)methyl)-6-(4-(trifluoromethoxy)phenyl)-3,4-dihydro-2H-benzo[e][1,3]oxazin-2-one] | 44.7 | 86.8 | 14.1 | 36.1 |
| Cc1ccnc(CN2Cc3cc(-c4ccc(C(F)(F)F)cc4)ccc3OC2=O)n1 [Example 30, 3-((4-methylpyrimidin-2-yl)methyl)-6-(4-(trifluoromethyl)phenyl)-3,4-dihydro-2H-benzo[e][1,3]oxazin-2-one] | 49.7 | 87.5 | 13.2 | 36.5 |
| COc1cc(OC(F)(F)F)ccc1-c1ccc2c(c1)CN(Cc1nccc(C)n1)C(=O)O2 [Example 31, 6-(2-methoxy-4-(trifluoromethoxy)phenyl)-3-((4-methylpyrimidin-2-yl)methyl)-3,4-dihydro-2H-benzo[e][1,3]oxazin-2-one] | 6 | 53.3 | < 5 | 12.2 |
| Cc1ccnc(CN2Cc3cc(-c4ccc(OC(F)(F)F)cc4F)ccc3OC2=O)n1 [Example 32, 6-(2-fluoro-4-(trifluoromethoxy)phenyl)-3-((4-methylpyrimidin-2-yl)methyl)-3,4-dihydro-2H-benzo[e][1,3]oxazin-2-one] | 10.8 | 61.8 | < 5 | 33.1 |
| Cc1ccnc(CN2Cc3cc(-c4ccc(OC(F)(F)F)cc4C)ccc3OC2=O)n1 [Example 33, 6-(2-methyl-4-(trifluoromethoxy)phenyl)-3-((4-methylpyrimidin-2-yl)methyl)-3,4-dihydro-2H-benzo[e][1,3]oxazin-2-one] | 5.5 | 61.4 | < 5 | 27.8 |
| COc1cc(C(F)(F)F)ccc1-c1ccc2c(c1)CN(Cc1ncccn1)C(=O)O2 [Example 34, 6-(2-methoxy-4-(trifluoromethyl)phenyl)-3-(pyrimidin-2-ylmethyl)-3,4-dihydro-2H-benzo[e][1,3]oxazin-2-one] | 26.9 | 76.1 | < 5 | 27.7 |
| CCOc1cc(C(F)(F)F)ccc1-c1ccc2c(c1)CN(Cc1ncccn1)C(=O)O2 [Example 35, 6-(2-ethoxy-4-(trifluoromethyl)phenyl)-3-(pyrimidin-2-ylmethyl)-3,4-dihydro-2H-benzo[e][1,3]oxazin-2-one] | 37.6 | 80.4 | 9.7 | 20.2 |
| O=C1Oc2ccc(-c3ccc(C(F)(F)F)cc3F)cc2CN1Cc1ncccn1 [Example 36, 6-(2-fluoro-4-(trifluoromethyl)phenyl)-3-(pyrimidin-2-ylmethyl)-3,4-dihydro-2H-benzo[e][1,3]oxazin-2-one] | 22.8 | 68.7 | 5.9 | 11.5 |
